For experiment [1], the target named is cortisol synthase (CYP11B1) (Macaca fascicularis, UniProt A0A2K5ULY1). The experiment can be described thus: Inhibition of cortisol synthesis, cynomolgus adrenal mitochondria, 11-deoxycortisol as substrate. Format: biochemical, cynomolgus monkey. To be noted: 150 units of CYP11B1, 11-deoxycortisol as substrate. As to the method: The aldosterone synthase and cortisol synthase inhibition assays employ cynomolgus adrenal gland mitochondria as the source of aldosterone synthase (CYP11B2) and cortisol synthase (CYP11B1). Mitochondria are prepared from frozen cynomolgus monkey adrenal glands according to Method A described in by J. D. McGarry et al. (Biochem. J., 1983, 214, 21-28), with a final resuspension in the AT buffer described in R. Yamaguchi et al. (Cell Death and Differentiation, 2007, 14, 616-624), frozen as aliquots in liquid nitrogen and stored at −80° C. until use. One unit of CYP11B2 and CYP11B1 activity in these preparations is defined as the amount of enzyme that generates 1 pmol of product in one hour under the conditions described.
Assays are performed as for aldosterone synthase except for the use of 150 units of CYP11B1, 11-deoxycortisol as substrate and cortisol measured as product.

In a further experiment the target is T1, CYP19A1 (Homo sapiens, UniProt P11511).
T1 sequence (P11511 1-503): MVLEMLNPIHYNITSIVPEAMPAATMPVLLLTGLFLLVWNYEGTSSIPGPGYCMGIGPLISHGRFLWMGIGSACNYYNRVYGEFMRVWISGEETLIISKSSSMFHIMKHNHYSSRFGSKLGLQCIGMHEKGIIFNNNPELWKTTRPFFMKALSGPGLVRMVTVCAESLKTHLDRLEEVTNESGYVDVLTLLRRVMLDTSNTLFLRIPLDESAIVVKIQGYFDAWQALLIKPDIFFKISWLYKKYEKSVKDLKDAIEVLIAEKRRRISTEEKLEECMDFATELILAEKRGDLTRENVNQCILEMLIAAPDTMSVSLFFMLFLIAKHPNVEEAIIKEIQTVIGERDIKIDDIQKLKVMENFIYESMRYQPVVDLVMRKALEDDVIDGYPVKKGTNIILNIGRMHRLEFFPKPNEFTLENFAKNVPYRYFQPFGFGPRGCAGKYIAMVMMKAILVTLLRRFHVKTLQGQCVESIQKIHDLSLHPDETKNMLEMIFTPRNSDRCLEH
In words: Inhibition of CYP19A1 (Kragie et al.). To be noted: read-out: CYP19A1 IC50. Format: biochemical.

For a further experiment, the target named is T2, rhCYP17A1 (Homo sapiens, UniProt P05093).
T2 construct: purchased Cypex
T2 sequence (P05093 1-508): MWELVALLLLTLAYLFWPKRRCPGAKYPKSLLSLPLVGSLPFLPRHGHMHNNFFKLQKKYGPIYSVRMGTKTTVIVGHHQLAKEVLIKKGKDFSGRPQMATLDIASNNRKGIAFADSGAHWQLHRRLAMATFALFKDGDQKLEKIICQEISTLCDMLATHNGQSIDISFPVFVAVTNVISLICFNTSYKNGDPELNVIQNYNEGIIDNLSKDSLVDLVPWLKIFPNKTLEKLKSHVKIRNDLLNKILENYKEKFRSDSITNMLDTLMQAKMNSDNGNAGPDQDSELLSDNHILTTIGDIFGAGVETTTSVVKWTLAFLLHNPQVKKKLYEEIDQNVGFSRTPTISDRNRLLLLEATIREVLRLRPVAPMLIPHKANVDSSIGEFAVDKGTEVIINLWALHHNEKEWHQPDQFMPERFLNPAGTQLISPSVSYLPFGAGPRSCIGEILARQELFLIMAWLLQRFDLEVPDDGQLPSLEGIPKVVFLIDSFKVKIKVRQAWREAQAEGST
In words: Inhibition of CYP17A1, progesterone to 17-α-hydroxyprogesterone, mass spectrometry. It counts as biochemical. As to the method: Compounds of the invention may also be evaluated for inhibition of CYP17A1 via the following assay:
Reactions are started by the addition of NADPH to 1 mM and allowed to proceed for 15 minutes at 37° C. Reactions are terminated by the addition of 40 μL of MeCN containing an internal standard for mass spectrometry. The plates are centrifuged at 3000 rpm for 5 min and the reaction product 17-α-hydroxyprogesterone is quantified by mass spectrometry. To determine the assay blank value (0% activity), NADPH is omitted from some reactions.
(§1) Dose dependent inhibition is quantified by the inclusion of compound at various concentrations. Maximum activity (100%) is defined by reactions containing NADPH, but without compound.

Experiment [2] has as its target T3, aldosterone synthase (CYP11B2) (Macaca fascicularis, UniProt A0A2K5UPL9).
T3 construct: employ cynomolgus adrenal gland mitochondria as the source of aldosterone synthase (CYP11B2); from tissue; host or cells: cynomolgus monkey adrenal gland mitochondria
T3 sequence (A0A2K5UPL9 1-503): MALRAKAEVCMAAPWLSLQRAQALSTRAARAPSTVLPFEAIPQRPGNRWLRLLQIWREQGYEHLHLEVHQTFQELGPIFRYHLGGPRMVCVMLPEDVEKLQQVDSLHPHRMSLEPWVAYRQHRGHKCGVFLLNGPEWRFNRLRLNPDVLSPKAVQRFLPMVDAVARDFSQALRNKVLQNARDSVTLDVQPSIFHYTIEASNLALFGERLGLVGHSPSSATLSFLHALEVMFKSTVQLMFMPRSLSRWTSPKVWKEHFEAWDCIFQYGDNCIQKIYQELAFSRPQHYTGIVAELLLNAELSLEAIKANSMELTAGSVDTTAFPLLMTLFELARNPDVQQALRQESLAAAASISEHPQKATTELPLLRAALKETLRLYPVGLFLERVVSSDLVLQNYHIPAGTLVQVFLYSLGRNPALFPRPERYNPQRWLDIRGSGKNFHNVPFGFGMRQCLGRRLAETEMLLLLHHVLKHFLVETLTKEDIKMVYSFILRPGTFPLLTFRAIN
The experiment can be described thus: Inhibition of aldosterone synthase, cynomolgus adrenal mitochondria, aldosterone quantified by mass spectrometry. The conditions noted are these: 2 μM corticosterone, 90 minutes at 37° C. Format: biochemical, cynomolgus monkey. Here is the method:
The aldosterone synthase and cortisol synthase inhibition assays employ cynomolgus adrenal gland mitochondria as the source of aldosterone synthase (CYP11B2) and cortisol synthase (CYP11B1). […] One unit of CYP11B2 and CYP11B1 activity in these preparations is defined as the amount of enzyme that generates 1 pmol of product in one hour under the conditions described.
The compounds of the invention may be evaluated for aldosterone synthase inhibition by the following assay:
Assays are performed in 96-well format in a final volume of 60 microL/well, containing 100 mM potassium phosphate, pH 7.4, 1% (v/v) DMSO, and additionally, 2 μM of corticosterone and 50 units of CYP11B2 activity. Reactions are started by the addition of NADPH to 1 mM and allowed to proceed for 90 minutes at 37° C. Reactions are terminated by the addition of 60 μL of MeCN containing an internal standard for mass spectrometry. One hundred microliters are then transferred to a glass filter plate and centrifuged at 570×g for 5 minutes and the filtrate is collected. Reaction product aldosterone is quantified by mass spectrometry. To determine the assay blank value (0% activity), NADPH is omitted from some reactions.
as §1

Where [3] appears, read: cynomolgus adrenal mitochondria, read-out: Cortisol Inhibition IC50.
The mark [4] stands for this setting: rhCYP17A1, 150 nM progesterone, 15 minutes at 37° C.; read-out: CYP17A1 IC50.
The mark [5] stands for this setting: Cortisol Inhibition IC50, cynomolgus adrenal mitochondria.

Like-named read-outs stand apart in the source and are kept apart here.

Usually IC50 stands for the concentration at which inhibition is half-maximal. As for `CC1(CO)Cc2ncn(-c3ccc(Cl)c(Cl)c3)c2C(=O)O1` (single isomer, unassigned) [Compound 30A, 3-(3,4-dichlorophenyl)-6-(hydroxymethyl)-6-methyl-3H,4H,6H,7H-pyrano[3,4-d]imidazol-4-one], the half-inhibitory concentration (IC50) in experiment [1] (setting [3]) was 9 µM; at CYP19A1 it was greater than 20 µM; on rhCYP17A1 (setting [4]), greater than 20 µM; in experiment [2], 0.028 µM.
On to `C[C@]1(CO)Cc2ncn(-c3ccc(C#N)c(Cl)c3)c2C(=O)O1` (single isomer, unassigned) [Compound 29A], for which the IC50 in experiment [1] (setting [5]) was 4.7 µM; at CYP19A1, greater than 20 µM; at rhCYP17A1 (setting [4]), greater than 20 µM; in experiment [2], 0.016 µM.
With `CC1Cc2ncn(-c3ccc(C#N)cc3)c2C(=O)O1` (single isomer, unassigned) [Compound 16A, 4[6-methyl-4-oxo-3H,4H,6H,7H-pyrano[3,4-d]imidazol-3-yl]benzonitrile], the IC50 is 26 µM in experiment [1] (setting [3]), greater than 20 µM at CYP19A1, greater than 20 µM on rhCYP17A1 (setting [4]) and 0.1 µM in experiment [2].
Take `N#Cc1ccc(-n2cnc3c2C(=O)OC(CO)C3)cc1Cl` (single isomer, unassigned) [Compound 33B, 2-chloro-4-[6-(hydroxymethyl)-4-oxo-3H,4H,6H,7H-pyrano[3,4-d]imidazol-3-yl]benzonitrile]: the IC50 in experiment [1] (setting [5]) was 14 µM; on CYP19A1, greater than 20 µM; at rhCYP17A1 (read-out: CYP17A1 IC50; rhCYP17A1, 150 nM progesterone, 15 minutes at 37° C.) it was greater than 20 µM; in experiment [2], 0.027 µM.
For the compound `CN1C(=O)CCc2cc(-n3cnc4c3C(=O)OC(C)(C)C4)ccc21` [Compound 5, 6-{6,6-dimethyl-4-oxo-3H,4H,6H,7H-pyrano[3,4-d]imidazol-3-yl}-1-methyl-1,2,3,4-tetrahydroquinolin-2-one], the IC50 in experiment [1] (setting [3]) is 40 µM; on CYP19A1, greater than 20 µM; on rhCYP17A1 (setting [4]), greater than 20 µM; in experiment [2], 0.11 µM.
Turning to `C[C@@]1(CO)Cc2ncn(-c3ccc(C#N)c(Cl)c3)c2C(=O)O1` (single isomer, unassigned) [Compound 29B], the IC50 is 23 µM in experiment [1] (setting [5]), greater than 20 µM on CYP19A1, greater than 20 µM at rhCYP17A1 (setting [4]) and 0.048 µM in experiment [2].
With `CC1(C)Cc2ncn(-c3ccc(C#N)c(Cl)c3)c2C(=O)O1` [Compound 6, 2-chloro-4-{6,6-dimethyl-4-oxo-3H,4H,6H,7H-pyrano[3,4-d]imidazol-3-yl}benzonitrile], the IC50 in experiment [1] (setting [5]) was 2.5 µM; at CYP19A1, greater than 20 µM; at rhCYP17A1 (setting [4]), greater than 20 µM; in experiment [2] it was 0.0053 µM.
As to `CC1(C)Cc2ncn(-c3ccc(C#N)cc3)c2C(=O)O1` [Compound 3, 4-{6,6-dimethyl-4-oxo-3H,4H,6H,7H-pyrano[3,4-d]imidazol-3-yl}benzonitrile], the IC50 in experiment [1] (setting [3]) is 8.7 µM; at CYP19A1 it was greater than 20 µM; on rhCYP17A1 (setting [4]) it was greater than 20 µM; in experiment [2] it was 0.035 µM.
Take `CC1(C)Cc2ncn([C@H]3CC[C@H](C#N)CC3)c2C(=O)O1` [Compound 28, trans-4-(6,6-Dimethyl-4-oxo-6,7-dihydro-4H-pyrano[3,4-d]imidazol-3-yl)-cyclohexanecarbonitrile]: the IC50 in experiment [1] (setting [3]) is 16 µM; on CYP19A1, greater than 20 µM; at rhCYP17A1 (setting [4]) it was greater than 20 µM; in experiment [2], 0.075 µM.
Turning to `Cc1cc(C#N)ccc1-n1cnc2c1C(=O)OC(C)(CO)C2` (single isomer, unassigned) [Compound 31A, 4-[6-(hydroxymethyl)-6-methyl-4-oxo-3H,4H,6H,7H-pyrano[3,4-d]imidazol-3-yl]-3-methylbenzonitrile], the 50% inhibitory concentration (IC50) is 3.6 µM in experiment [1] (setting [3]), greater than 20 µM on CYP19A1, greater than 20 µM at rhCYP17A1 (setting [4]) and 0.023 µM in experiment [2].
Take `Cc1cc(C#N)ccc1-n1cnc2c1C(=O)OC(C)(CO)C2` (single isomer, unassigned) [Compound 31B, 4-[6-(hydroxymethyl)-6-methyl-4-oxo-3H,4H,6H,7H-pyrano[3,4-d]imidazol-3-yl]-3-methylbenzonitrile]: the IC50 in experiment [1] (setting [3]) is 24 µM; on CYP19A1 it was greater than 20 µM; at rhCYP17A1 (setting [4]) it was greater than 20 µM; in experiment [2], 0.21 µM.
Turning to `CC1(CO)Cc2ncn(-c3ccc(Cl)cc3)c2C(=O)O1` (single isomer, unassigned) [Compound 38A, 3-(4-chlorophenyl)-6-(hydroxymethyl)-6-methyl-3H,4H,6H,7H-pyrano[3,4-d]imidazol-4-one], the half-maximal inhibitory concentration (IC50) in experiment [1] (setting [3]) was determined as 19 µM; in experiment [2] it was 0.12 µM.
The like results for `N#Cc1ccc(-n2cnc3c2C(=O)OCC3)cc1` [Compound 21, 4-{4-oxo-3H,4H,6H,7H-pyrano[3,4-d]imidazol-3-yl}benzonitrile] were, in that order, 82 µM and 0.42 µM.
The like results for `O=C1OCCc2ncn(-c3ccc(F)c(F)c3)c21` [Compound 24, 3-(3,4-difluorophenyl)-3H,4H,6H,7H-pyrano[3,4-d]imidazol-4-one] were, in that order, 20 µM and 0.44 µM.
As for `CC1Cc2ncn(-c3ccc(C#N)c(Cl)c3)c2C(=O)O1` (single isomer, unassigned) [Compound 15A, 2-chloro-4-[6-methyl-4-oxo-3H,4H,6H,7H-pyrano[3,4-d]imidazol-3-yl]benzonitrile], the IC50 came to 3.4 µM in experiment [1] (setting [5]) and 0.0075 µM in experiment [2].

The record behind these values is patent US9334285B2, “Aldosterone synthase inhibitors” (Boehringer Ingelheim International GmbH, priority 2014, dated 2016).
